# From patent US4177269A, “Novel 17-esters of 17α-hydroxy gestogens, compositions containing such compounds, processes for their preparation and methods of treatment therewith” (Aktiebolaget Leo, priority 1976, dated 1979)
# Experiments:
# [1] = Walker carcinosarcoma 256 tumour growth inhibition in rats; type: in vivo, Sprague-Dawley rats; design: ED50: unit: mg/kg; details: rat, in vivo, po, daily p.o. for 5 days
# Description: (§1) LD50 is the dose that causes a 50 percent lethality of the animals, and ED50 is the dose that causes a 50 percent reduction of tumour size.
# (§2) The experimental design and the interpretation of the results are in accordance with the standards set by the CCNSC (Cancer Chemotherpy Reports, January 1959 and December 1962).
# (§3) Walker carcinosarcoma 256.
# (§4) Experimental animals: Sprague-Dawley rats.
# (§5) Tumour implant: Tumour pieces with 2-4 mm diameter, sub-
# (§6) Therapy: Daily p.o. administration for 5 days starting on
# (§7) the day following implantation.
# (§8) Termination: The animals are killed on the 9th day.
# (§9) Evaluation: Weights of tumours of test animals are compared
# (§10) with those of control animals.
# [2] = test system: Walker carcinosarcoma 256; experiment: as above; type: in vivo, Sprague-Dawley rats; design: ED50: unit: mg/kg; details: daily p.o. for 5 days, dose causing 50 percent reduction of tumour size, killed 9th day
# Description: as §1, §2, §3, §4, §5, §6, §7, §8, §9, §10
compound,measurement,setting,value
"CC(=O)[C@@]1(OC(=O)COC(=O)c2ccc(C)c(N(CCCl)CCCl)c2)CC[C@H]2[C@@H]3CCC4=CC(=O)CC[C@]4(C)[C@H]3CC[C@@]21C [Compound 3:7, 17α-/3-(N,N-bis(2-chloroethyl)amino)-4-methylbenzoyloxyacetoxy/pregn-4-ene-3,20-dione]",LD50,[1]; dose causing 50 percent lethality,> 250 mg/kg
same,selectivity ratio,[1]; read-out: T.I. (LD50/ED50),> 15
same,ED50,[2],16
